Measurements published in patent US6747056B2, “K99-5041 substance and production thereof” (The Kitasato Institute, priority 2002, dated 2004).
pIC50: −log10 of the molar value.

Assays:
[1] = Solubility in solvent; format: physicochemical; conditions: for Solubility in solvent: organic solvents: methanol, ethanol, acetonitrile, ethyl acetate, chloroform and dimethyl sulfoxide
[2] = molecular target: T1, Lanosterol synthase of human origin (Homo sapiens, UniProt P48449); experiment: Inhibitory action against lanosterol synthase of human origin (cell-free extract of transformed yeast, [14C](3S)-2,3-oxidosqualene substrate); format: biochemical; conditions: human lanosterol synthase expressed in yeast GIL77, cell-free extract 1 mg protein; 37° C., 60 minutes; substrate 0.17-0.42 μM; read-out: 50% inhibition concentration (IC50) for lanosterol synthase activity
T1 construct: made in house; host or cells: lanosterol synthase deficient yeast GIL77 (GAPDH promoter); cell-free extract
T1 sequence (P48449 1-732): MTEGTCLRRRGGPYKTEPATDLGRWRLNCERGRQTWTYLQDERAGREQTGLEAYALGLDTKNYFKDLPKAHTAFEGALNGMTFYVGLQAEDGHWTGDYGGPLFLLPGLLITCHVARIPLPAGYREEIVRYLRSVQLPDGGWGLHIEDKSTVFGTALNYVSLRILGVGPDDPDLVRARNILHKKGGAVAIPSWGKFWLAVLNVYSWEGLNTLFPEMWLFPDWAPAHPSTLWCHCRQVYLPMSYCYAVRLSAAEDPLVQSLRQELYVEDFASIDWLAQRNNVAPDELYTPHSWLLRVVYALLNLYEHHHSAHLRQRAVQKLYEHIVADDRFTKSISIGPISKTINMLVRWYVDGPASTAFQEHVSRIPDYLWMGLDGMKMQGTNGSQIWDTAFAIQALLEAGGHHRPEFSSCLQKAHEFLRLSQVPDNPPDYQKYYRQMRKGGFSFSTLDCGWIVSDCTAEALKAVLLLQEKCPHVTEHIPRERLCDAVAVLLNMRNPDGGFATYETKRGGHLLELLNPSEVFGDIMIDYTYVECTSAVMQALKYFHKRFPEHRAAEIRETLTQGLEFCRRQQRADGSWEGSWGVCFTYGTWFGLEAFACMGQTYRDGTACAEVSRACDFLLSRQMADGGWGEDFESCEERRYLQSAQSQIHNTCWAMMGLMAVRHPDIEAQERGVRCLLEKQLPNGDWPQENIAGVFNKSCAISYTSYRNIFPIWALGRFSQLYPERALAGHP
Protocol: (1) Inhibitory Action Against Lanosterol Synthase of Human Origin
Enzyme origin used is as follows. […] The thus obtained cell-free extract derived from transformed yeast was used.
The above transformed yeast was homogenized in buffer A [0.1 M potassium-phosphate buffer solution (pH 7.4), 0.45 M sucrose, 1 mM EDTA and 1 mM dithiothreitol] in the presence of acid treated glass beads using Waring blender [Type 500ACD, Sakuma Seisakusho Co., Japan]. Supernatant obtained by centrifugation, 8600×g, was prepared to make protein concentration of 10 mg/ml by adding the buffer A hereinabove to prepare the cell-free extract.
Assay of lanosterol synthase was performed as follows.
Subsequently, 6% potassium hydroxide/ethanol was added thereto to terminate the reaction, and the mixture was saponificated by incubating at 37° C. for 10 minutes, added cyclohexane 2 ml and stirred well. The cyclohexane layer 1.6 ml was dried up, spotted on TLC plate [silica gel plate (with concentration zone), Merck Inc., U.S.A., thickness 0.25 mm: Art. […] Next, amounts of unreacted [^14C](3S)-2,3-oxidosqualene and generated [^14C]lanosterol were quantitatively assayed using the photo image analyzer BAS-1500 (Fuji Photo Film Co., Japan) to calculate inhibition rate of lanosterol synthesis.

[3] = Grouping for acidic, neutral and basic; format: physicochemical

Row | SMILES | Solubility in solvent: organic solvents [1] | Solubility in solvent: water [1] | pIC50 [2] | Grouping for acidic, neutral and basic [3]
1 | CC1=NCC/C1=C\CCCCCCCCCCCCCC(C)C [K99-5041-C1x substance] | soluble | insoluble | 4.82 | Weak basic substance
2 | CCCCCCCCCCCCCCCC/C=C1\CCN=C1C [K99-5041-C2x substance] | soluble | insoluble | 4.74 | Weak basic substance
